Results taken from patent US20170050957A1, “4-AMINO-6-(HETEROCYCLIC)PICOLINATES AND 6-AMINO-2-(HETEROCYCLIC)PYRIMIDINE-4-CARBOXYLATES AND THEIR USE AS HERBICIDES” (Dow AgroSciences LLC, priority 2013, published 2017).
Where two headings read alike, the source gives them in different places.

Assays:
[1] = tested on: Key Broadleaf Weed and Crop Species; test: Post-emergent Test II herbicidal activity (Table 15); type: in vivo; details: post-emergence, 336 h, 14 d; for pest or weed control at 35 g/ha: 35 g ai/ha; for pest or weed control at 70 g/ha: 70 g ai/ha; for pest or weed control at 140 g/ha: 140 g ai/ha
How it was run: (§1)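 Plants grown in greenhouse (~15 h photoperiod, 23-29 °C day, 22-28 °C night) to first or second true leaf stage, then sprayed post-emergence at 187 L/ha with a high rate and 1/2×, 1/4×, 1/8× and 1/16× dilutions. Injury scored visually after 14 d, 0-100% versus untreated plants.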

[2] = tested on: Key Grass and Sedge Weeds as well as Grass Crops; test: Post-emergent Test II herbicidal activity (Table 16); type: in vivo; details: post-emergence, 336 h; for pest or weed control at 35 g/ha: 35 g ai/ha; for pest or weed control at 70 g/ha: 70 g ai/ha; for pest or weed control at 140 g/ha: 140 g ai/ha
How it was run: as §1

[3] = Abutilon theophrasti, velvetleaf (Abutilon theophrasti), read-out: Visual Growth Reduction (%) 14 Days After Application, ABUTH
[4] = Amaranthus retroflexus, redroot pigweed (Amaranthus retroflexus), read-out: Visual Growth Reduction (%) 14 Days After Application, AMARE
[5] = Brassica napus, oilseed rape, canola (Brassica napus), read-out: Visual Growth Reduction (%) 14 Days After Application, BRSNN
[6] = Chenopodium album, lambsquarters (Chenopodium album), read-out: Visual Growth Reduction (%) 14 Days After Application, CHEAL
[7] = Euphorbia heterophylla, wild poinsettia (Euphorbia heterophylla), read-out: Visual Growth Reduction (%) 14 Days After Application, EPHHL
[8] = Helianthus annuus, sunflower (Helianthus annuus), read-out: Visual Growth Reduction (%) 14 Days After Application, HELAN
[9] = Cyperus esculentus, yellow nutsedge (Cyperus esculentus), 14 days after application, read-out: Visual Growth Reduction (%) 14 Days After Application CYPES
[10] = Echinochloa crus-galli, barnyardgrass (Echinochloa crus-galli), 14 days after application, read-out: Visual Growth Reduction (%) 14 Days After Application ECHCG
[11] = Oryza sativa, rice (Oryza sativa), 14 days after application, read-out: Visual Growth Reduction (%) 14 Days After Application ORYSA
[12] = Setaria faberi, giant foxtail (Setaria faberi), 14 days after application, read-out: Visual Growth Reduction (%) 14 Days After Application SETFA
[13] = Triticum aestivum, wheat, spring (Triticum aestivum), 14 days after application, read-out: Visual Growth Reduction (%) 14 Days After Application TRZAS
[14] = Zea mays, maize, corn (Zea mays), 14 days after application, read-out: Visual Growth Reduction (%) 14 Days After Application ZEAMX

SMILES | pest or weed control at 35 g/ha [1, 3] [%] | pest or weed control at 70 g/ha [1, 3] [%] | pest or weed control at 140 g/ha [1, 3] [%] | pest or weed control at 35 g/ha [1, 4] [%] | pest or weed control at 70 g/ha [1, 4] [%] | pest or weed control at 140 g/ha [1, 4] [%] | pest or weed control at 35 g/ha [1, 5] [%] | pest or weed control at 70 g/ha [1, 5] [%] | pest or weed control at 140 g/ha [1, 5] [%] | pest or weed control at 35 g/ha [1, 6] [%] | pest or weed control at 70 g/ha [1, 6] [%] | pest or weed control at 140 g/ha [1, 6] [%] | pest or weed control at 35 g/ha [1, 7] [%] | pest or weed control at 70 g/ha [1, 7] [%] | pest or weed control at 140 g/ha [1, 7] [%] | pest or weed control at 35 g/ha [1, 8] [%] | pest or weed control at 70 g/ha [1, 8] [%] | pest or weed control at 140 g/ha [1, 8] [%] | pest or weed control at 70 g/ha [2, 9] [%] | pest or weed control at 140 g/ha [2, 9] [%] | further results
Cc1c(-c2ccc3sccc3c2)nc(C(=O)O)c(Cl)c1N [Compound 3.07] | 0 to 29 | 0 to 29 | 0 to 29 | 0 to 29 | 60 to 74 | 75 to 84 | 45 to 59 | 60 to 74 | 60 to 74 | 0 to 29 | 0 to 29 | 75 to 84 | 0 to 29 | 0 to 29 | 0 to 29 | 85 to 94 | 85 to 94 | 85 to 94 | 0 to 29 | 0 to 29 | pest or weed control at 35 g/ha ([2]; Cyperus esculentus, yellow nutsedge (Cyperus esculentus), 14 d, read-out: Visual Growth Reduction (%) 14 Days After Application, CYPES): 0 to 29%; pest or weed control at 35 g/ha ([2]; Echinochloa crus-galli, barnyardgrass (Echinochloa crus-galli), 14 d, read-out: Visual Growth Reduction (%) 14 Days After Application, ECHCG): 0 to 29%; pest or weed control at 70 g/ha [2, 10]: 0 to 29%; pest or weed control at 140 g/ha [2, 10]: 0 to 29%; pest or weed control at 35 g/ha ([2]; Oryza sativa, rice (Oryza sativa), 14 d, read-out: Visual Growth Reduction (%) 14 Days After Application, ORYSA): 0 to 29%; pest or weed control at 70 g/ha [2, 11]: 0 to 29%; pest or weed control at 140 g/ha [2, 11]: 0 to 29%; pest or weed control at 35 g/ha ([2]; Setaria faberi, giant foxtail (Setaria faberi), 14 d, read-out: Visual Growth Reduction (%) 14 Days After Application, SETFA): 0 to 29%; pest or weed control at 70 g/ha [2, 12]: 0 to 29%; pest or weed control at 140 g/ha [2, 12]: 0 to 29%; pest or weed control at 35 g/ha ([2]; Triticum aestivum, wheat, spring (Triticum aestivum), 14 d, read-out: Visual Growth Reduction (%) 14 Days After Application, TRZAS): 0 to 29%; pest or weed control at 70 g/ha [2, 13]: 0 to 29%; pest or weed control at 140 g/ha [2, 13]: 0 to 29%; pest or weed control at 35 g/ha ([2]; Zea mays, maize, corn (Zea mays), 14 d, read-out: Visual Growth Reduction (%) 14 Days After Application, ZEAMX): 0 to 29%; pest or weed control at 70 g/ha [2, 14]: 0 to 29%; pest or weed control at 140 g/ha [2, 14]: 0 to 29%; melting point: 159 to 165 °C
COC(=O)c1nc(-c2ccc3sccc3c2)nc(N)c1OC [Compound 3.08] | 0 to 29 | 30 to 44 | 30 to 44 | 0 to 29 | 30 to 44 | 60 to 74 | 0 to 29 | 0 to 29 | 30 to 44 | 85 to 94 | 85 to 94 | 85 to 94 | 60 to 74 | 75 to 84 | 85 to 94 | 60 to 74 | 75 to 84 | 85 to 94 | 0 to 29 | 30 to 44 | pest or weed control at 35 g/ha [2, 9]: 0 to 29%; pest or weed control at 35 g/ha [2, 10]: 0 to 29%; pest or weed control at 70 g/ha [2, 10]: 0 to 29%; pest or weed control at 140 g/ha [2, 10]: 75 to 84%; pest or weed control at 35 g/ha [2, 11]: 0 to 29%; pest or weed control at 70 g/ha [2, 11]: 0 to 29%; pest or weed control at 140 g/ha [2, 11]: 0 to 29%; pest or weed control at 35 g/ha [2, 12]: 0 to 29%; pest or weed control at 70 g/ha [2, 12]: 0 to 29%; pest or weed control at 140 g/ha [2, 12]: 0 to 29%; pest or weed control at 35 g/ha [2, 13]: 45 to 59%; pest or weed control at 70 g/ha [2, 13]: 60 to 74%; pest or weed control at 140 g/ha [2, 13]: 60 to 74%; pest or weed control at 35 g/ha [2, 14]: 30 to 44%; pest or weed control at 70 g/ha [2, 14]: 60 to 74%; pest or weed control at 140 g/ha [2, 14]: 75 to 84%; melting point: 125 to 127 °C
COc1c(N)nc(-c2ccc3sccc3c2)nc1C(=O)O [Compound 3.09] | 0 to 29 | 0 to 29 | 45 to 59 | 30 to 44 | 75 to 84 | 85 to 94 | 45 to 59 | 85 to 94 | 95 to 100 | 85 to 94 | 85 to 94 | 95 to 100 | 95 to 100 | 95 to 100 | 95 to 100 | 60 to 74 | 75 to 84 | 85 to 94 | 0 to 29 | 0 to 29 | pest or weed control at 35 g/ha [2, 9]: 0 to 29%; pest or weed control at 35 g/ha [2, 10]: 85 to 94%; pest or weed control at 70 g/ha [2, 10]: 85 to 94%; pest or weed control at 140 g/ha [2, 10]: 85 to 94%; pest or weed control at 35 g/ha [2, 11]: 0 to 29%; pest or weed control at 70 g/ha [2, 11]: 0 to 29%; pest or weed control at 140 g/ha [2, 11]: 0 to 29%; pest or weed control at 35 g/ha [2, 12]: 0 to 29%; pest or weed control at 70 g/ha [2, 12]: 0 to 29%; pest or weed control at 140 g/ha [2, 12]: 0 to 29%; pest or weed control at 35 g/ha [2, 13]: 60 to 74%; pest or weed control at 70 g/ha [2, 13]: 75 to 84%; pest or weed control at 140 g/ha [2, 13]: 85 to 94%; pest or weed control at 35 g/ha [2, 14]: 60 to 74%; pest or weed control at 70 g/ha [2, 14]: 75 to 84%; pest or weed control at 140 g/ha [2, 14]: 85 to 94%; melting point: 137 to 139 °C
